In US8273780B2, “Polycyclic antagonists of lysophosphatidic acid receptors” (Amira Pharmaceuticals, Inc., priority 2009, dated 2012):

Tests used:
[1] = target: T1, Human LPA1 (Homo sapiens, UniProt Q92633); assay: LPA1 calcium flux assay; format: cell-based; settings: CHO cells expressing human LPA1, 10 nM LPA; read-out: HLPA1 Ca Flux IC50
T1 construct: the full-length cDNA for human LPA1 was obtained by PCR of the reverse transcription reaction; expressed in transfected cells
Method: A 1.1 kb cDNA encoding the human LPA1 receptor was cloned from human lung. Human lung RNA (Clontech Laboratories, Inc. USA) was reverse transcribed using the RETROscript kit (Ambion, Inc.) and the full-length cDNA for human LPA1 was obtained by PCR of the reverse transcription reaction. The nucleotide sequence of the cloned human LPA1 was determined by sequencing and confirmed to be identical to the published human LPA1 sequence (An et al. Biochem. Biophys. Res. Commun. 231:619 (1997). The cDNA was cloned into the pcDNA5/FRT expression plasmid and transfected in CHO cells using lipofectamine 2000 (Invitrogen Corp., USA). Clones stably expressing human LPA1 were selected using hygromycin and identified as cells that show Ca-influx in response to LPA.
(§1) Human LPA1 or LPA3 expressing CHO cells are seeded at 20,000-45,000 cells per well in a 96-well poly-D-lysine coated plate one or two days before the assay. Prior to the assay, the cells are washed once with PBS and then cultured in serum-free media overnight. On the day of the assay, a calcium indicator dye (Calcium 4, Molecular Devices) in assay buffer (HBSS with Ca^2+and Mg^2+ and containing 20 mM Hepes and 0.3% fatty-acid free human serum albumin) is added to each well and incubation continued for 1 hour at 37° C. 10 μl of test compounds in 2.5% DMSO are added to the cells and incubation continued at room temperature for 30 minutes. Cells are the stimulated by the addition of 10 nM LPA and intracellular Ca^2+ measured using the Flexstation 3 (Molecular Devices). IC50s are determined using Graphpad prism analysis of drug titration curves.

[2] = target: T2, Human LPA3 (Homo sapiens, UniProt Q9UBY5); assay: LPA3 calcium flux assay; format: cell-based; settings: CHO cells expressing human LPA3, 10 nM LPA; read-out: HLPA3 Ca Flux IC50
T2 construct: The full-length cDNA fragment for human LPA3 was obtained by PCR from the vector; expressed in transfected cells; cDNA from the Missouri S&T cDNA Resource Center
T2 sequence (Q9UBY5 1-353): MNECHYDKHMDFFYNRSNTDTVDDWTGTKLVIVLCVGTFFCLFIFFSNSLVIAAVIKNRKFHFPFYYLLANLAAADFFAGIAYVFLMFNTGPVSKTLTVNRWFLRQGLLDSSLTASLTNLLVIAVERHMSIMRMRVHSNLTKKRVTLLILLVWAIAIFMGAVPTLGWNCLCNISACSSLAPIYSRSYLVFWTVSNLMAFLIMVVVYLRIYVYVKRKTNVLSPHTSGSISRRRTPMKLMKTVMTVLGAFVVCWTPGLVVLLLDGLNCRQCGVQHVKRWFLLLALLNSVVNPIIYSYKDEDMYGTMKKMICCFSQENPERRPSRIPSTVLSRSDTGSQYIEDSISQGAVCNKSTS
Method: A vector containing the human LPA3 receptor cDNA was obtained from the Missouri S&T cDNA Resource Center (www.cdna.org). The full-length cDNA fragment for human LPA3 was obtained by PCR from the vector. The nucleotide sequence of the cloned human LPA3 was determined by sequencing and confirmed to be identical to the published human LPA3 sequence (NCBI accession number NM_012152). The cDNA was cloned into the pcDNA5/FRT expression plasmid and transfected in CHO cells using lipofectamine 2000 (Invitrogen Corp., USA). Clones stably expressing human LPA3 were selected using hygromycin and identified as cells that show Ca-influx in response to LPA.
as §1

[3] = tested on: human A2058 melanoma cells; assay: LPA1 chemotaxis assay; format: cell-based; settings: 100 nM LPA, read-out: inhibition of LPA-driven chemotaxis IC50
Method: Chemotaxis of the A2058 human melanoma cells was measured using the Neuroprobe ChemoTx® System plates (8 μM pore size, 5.7 mm diameter sites). The filter sites were coated with 0.001% fibronectin (Sigma) in 20 mM Hepes, pH 7.4 and allowed to dry. A2058 cells were serum-starved for 24 hours, then harvested with Cell Stripper and resuspended in DMEM containing 0.1% fatty-acid-free bovine serum albumin (BSA) to a concentration of 1×10^6/ml. Cells were mixed with an equal volume of test compound (2×) in DMEM containing 0.1% fatty-acid-free BSA and incubated at 37° C. for 15 minutes. LPA (100 nM in DMEM containing 0.1% fatty-acid-free BSA) or vehicle was added to each well of the lower chamber and 50 μl of the cell suspension/test compound mix was applied to the upper portion of the ChemoTx plate. Plates were incubated at 37° C. for three hours and then the cells removed from the upper portion by rinsing with PBS and scraping. The filter was dried then stained with HEMA 3 Staining System (Fisher Scientific). The absorbance of the filter was read at 590 nm and IC50s were determined using Symyx Assay Explorer.

[4] = tested on: pancreatic cancer cell lines; settings: in response to LPA and peritoneal fluid (ascites) from pancreatic cancer patients; cited from earlier work
[5] = tested on: highly peritoneal metastatic pancreatic cancer cell line; settings: LPA-induced and ascites-induced; cited from earlier work
[6] = tested on: UUO mice; settings: in LPA1 (−/−) mice renal fibrosis was significantly attenuated; cited from earlier work

T1 sequence (Q92633 whole entry): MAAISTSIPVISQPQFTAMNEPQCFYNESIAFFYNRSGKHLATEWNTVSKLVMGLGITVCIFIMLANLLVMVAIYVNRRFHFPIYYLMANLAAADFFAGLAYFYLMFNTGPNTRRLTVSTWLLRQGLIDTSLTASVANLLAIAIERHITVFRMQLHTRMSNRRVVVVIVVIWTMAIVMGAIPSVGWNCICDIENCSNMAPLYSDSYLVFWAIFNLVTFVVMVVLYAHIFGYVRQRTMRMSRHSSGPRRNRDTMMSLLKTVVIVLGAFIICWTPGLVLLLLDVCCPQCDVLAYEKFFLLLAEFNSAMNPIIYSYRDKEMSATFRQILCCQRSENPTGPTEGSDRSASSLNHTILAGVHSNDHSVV

SMILES	IC50 [1] [nM]	IC50 [2] [nM]	IC50 [3] [nM]	in vitro migration [4]	invasion activity [5]	development of renal fibrosis [6]
Cc1noc(-c2ccc(-c3ccc(C4(C(=O)O)CC4)cc3)cc2)c1NC(=O)O[C@H](C)c1ccccc1C#N [Compound 19, 1-(4′-{4-[(R)-1-(2-Cyano-phenyl)-ethoxycarbonylamino]-3-methyl-isoxazol-5-yl}-biphenyl-4-yl)-cyclopropanecarboxylic acid]	< 300	1000 to 10000	< 100			
Cc1noc(-c2ccc(-c3ccc(C4(C(=O)O)CC4)cc3)cc2)c1NC(=O)OCc1ccccc1 [Compound 4, 1-[4′-(4-Benzyloxycarbonylamino-3-methyl-isoxazol-5-yl)-biphenyl-4-yl]-cyclopropanecarboxylic acid]	< 300	> 10000	< 100			
Cc1cccc([C@@H](C)OC(=O)Nc2c(C)noc2-c2ccc(-c3ccc(C4(C(=O)O)CC4)cc3)cc2)c1 [Compound 17, 1-{4′-[3-Methyl-4-((R)-1-m-tolyl-ethoxycarbonylamino)-isoxazol-5-yl]-biphenyl-4-yl}-cyclopropanecarboxylic acid]	< 300	300 to 1000	< 100			
CCc1noc(-c2ccc(-c3ccc(C4(C(=O)O)CC4)cc3)cc2)c1NC(=O)O[C@H](C)c1ccccc1 [Compound 29, 1-{4′-[3-Ethyl-4-((R)-1-phenyl-ethoxycarbonylamino)-isoxazol-5-yl]-biphenyl-4-yl}-cyclopropanecarboxylic acid]	< 300	300 to 1000	< 100			
Cc1ccc([C@@H](C)OC(=O)Nc2c(C)noc2-c2ccc(-c3ccc(C4(C(=O)O)CC4)cc3)cc2)cc1 [Compound 16, 1-{4′-[3-Methyl-4-((R)-1-p-tolyl-ethoxycarbonylamino)-isoxazol-5-yl]-biphenyl-4-yl}-cyclopropanecarboxylic acid]	< 300	1000 to 10000	< 100			
Cc1noc(-c2ccc(-c3ccc(C4(C(=O)O)CC4)cc3)cc2)c1NC(=O)OC(C)C1=C(Cl)CCCC1 (stereo not drawn) [Compound 21, 1-(4′-{4-[1-(2-Chloro-cyclohex-1-enyl)-ethoxycarbonylamino]-3-methyl-isoxazol-5-yl}-biphenyl-4-yl)-cyclopropanecarboxylic acid]	< 300	< 300	< 100			
Cc1noc(-c2ccc(CSCCC(=O)O)cc2)c1NC(=O)OC(C)c1ccccc1Cl (stereo not drawn) [Ki16425]				effectively blocked	blocked	closely resembled the LPA1 (−/−) mice

The next lines start with results.

IC50 [1] [nM]	IC50 [2] [nM]	IC50 [3] [nM]	SMILES	in vitro migration [4]	invasion activity [5]	development of renal fibrosis [6]
< 300	1000 to 10000	< 100	Cc1noc(-c2ccc(-c3ccc(C4(C(=O)NS(C)(=O)=O)CC4)cc3)cc2)c1NC(=O)O[C@H](C)c1ccccc1 [Compound 35, {5-[4′-(1-Methanesulfonylaminocarbonyl-cyclopropyl)-biphenyl-4-yl]-3-methyl-isoxazol-4-yl}-carbamic acid (R)-1-phenyl-ethyl ester]			
< 300	1000 to 10000	< 100	Cc1noc(-c2ccc(-c3ccc(C4(c5nc(=O)o[nH]5)CC4)cc3)cc2)c1NC(=O)O[C@H](C)c1ccccc1 [Compound 38, (3-Methyl-5-{4′-[1-(5-oxo-2,5-dihydro-[1,2,4]oxadiazol-3-yl)-cyclopropyl]-biphenyl-4-yl}-isoxazol-4-yl)-carbamic acid (R)-1-phenyl-ethyl ester]			
< 300	1000 to 10000	< 100	Cc1noc(-c2ccc(-c3ccc(C4(c5nnn[nH]5)CC4)cc3)cc2)c1NC(=O)O[C@H](C)c1ccccc1 [Compound 39, (3-Methyl-5-{4′-[1-(1H-tetrazol-5-yl)-cyclopropyl]-biphenyl-4-yl}-isoxazol-4-yl)-carbamic acid (R)-1-phenyl-ethyl ester]			
< 300	1000 to 10000	< 100	Cc1noc(-c2ccc(-c3ccc(C4(C(=O)NS(=O)(=O)c5ccccc5)CC4)cc3)cc2)c1NC(=O)O[C@H](C)c1ccccc1 [Compound 36, {5-[4′-(1-Benzenesulfonylaminocarbonyl-cyclopropyl)-biphenyl-4-yl]-3-methyl-isoxazol-4-yl}-carbamic acid (R)-1-phenyl-ethyl ester]			
